What was measured:
[1] = system: HT29 cells; test: Cellular efficacy in combination with SN38 (SRB potentiation); type: cell-based; details: SRB IC50/Potentiation IC50, 96 hour, SN38 at its IC50
Protocol: Assay 4: Cellular Efficacy in HT29 or SW620 Colon Carcinoma Cells in Combination with SN38 or Gemcitabine
HT29 or SW620 cells were seeded at 1.6 to 3.2×10^3 cells per well in 96-well plates in a volume of 160 μL medium and allowed to attach for 36 hours prior to treatment.
The Potentiation Index (PI) was calculated as a measure of the ability of the CHK1 inhibitor to enhance SN38 or gemcitabine cytotoxicity and was defined as the ratio of the Cytotoxicity IC50 of the CHK1 inhibitor alone versus the Potentiation IC50 of the CHK1 inhibitor combined with the genotoxic (i.e., PI=CHK1 inhibitor SRB IC50/Potentiation IC50).

[2] = target: CHK1 (Homo sapiens (Human), UniProt O14757); test: CHK1 DELFIA assay as described in Collins et al., 2009a; type: biochemical
Chain of CHK1 (O14757 whole entry): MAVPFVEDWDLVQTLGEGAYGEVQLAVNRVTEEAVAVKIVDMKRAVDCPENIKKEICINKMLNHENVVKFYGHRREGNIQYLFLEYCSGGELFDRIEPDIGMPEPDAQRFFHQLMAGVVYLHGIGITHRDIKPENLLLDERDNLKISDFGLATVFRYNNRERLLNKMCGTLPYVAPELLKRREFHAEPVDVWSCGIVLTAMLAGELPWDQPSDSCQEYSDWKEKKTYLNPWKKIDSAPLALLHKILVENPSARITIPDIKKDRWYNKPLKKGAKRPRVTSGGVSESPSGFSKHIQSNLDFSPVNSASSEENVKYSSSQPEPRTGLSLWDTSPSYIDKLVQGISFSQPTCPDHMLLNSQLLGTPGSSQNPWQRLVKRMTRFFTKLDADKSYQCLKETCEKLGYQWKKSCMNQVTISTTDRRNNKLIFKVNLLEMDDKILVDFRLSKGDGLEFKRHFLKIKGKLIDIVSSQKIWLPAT

[3] = system: HT29 cells; test: Selectivity in cells for CHK1-dependent checkpoint abrogation versus cytotoxicity (SRB IC50/MIA IC50); type: cell-based; details: SRB IC50/MIA IC50, both in HT29 cells
Protocol: Assay 3: Assessment of Selectivity in Cells for CHK1-Dependent Checkpoint Abrogation versus Cytotoxicity
Compound cytotoxicity was assessed using a 96 hour sulforhodamine B assay (SRB, Sigma catalog number S9012). HT29 or SW620 cells were seeded at 1.6 to 3.2×10^3 cells per well in 96-well plates in a volume of 160 μL medium and allowed to attach for 36 hours prior to treatment. […] Cells were incubated for 96 hours (four doublings) at 37° C. in a humidified 5% CO2 environment and then fixed and stained with SRB.
The Activity Index (AI), a measure of the selectivity of the CHK1 inhibitor test compounds for effecting CHK1-dependent checkpoint abrogation versus cytotoxicity was calculated from the ratio of the CHK1 inhibitor cytotoxicity IC50 versus the MIA IC50 (i.e., Al=CHK1 inhibitor SRB IC50/MIA IC50), both measured in HT29 cells.

[4] = system: HT29 cells; test: Cellular potency in Mitosis Inhibition Assay (MIA), checkpoint abrogation after etoposide; type: cell-based; details: versus Y-154
Protocol: Assay 2: Cellular Potency in Mitosis Inhibition Assay (MIA)
Checkpoint abrogation by CHK1 kinase function inhibitors in combination with genotoxic agents was assessed using a europium based ELISA assay designed to quantify the number of cells trapped in mitosis after treatment with a genotoxic agent (to induce G2 arrest) followed by a CHK1 inhibitor test compound in combination with nocodazole to abrogate this arrest. HT29 cells were seeded at 10^4 cells per well into 96-well plates in a volume of 160 μL and left to attach for 36 hours. […] After genotoxic drug exposure, the medium was removed and replaced with fresh medium (160 μL). […] CHK1 inhibitor test compounds were added in 40 μL aliquots using quadruplicate wells for each concentration. After 21 hours exposure, the medium was removed and cells were fixed in 4% formaldehyde in phosphate buffered saline (PBS, pH 7.4, pre-cooled to 4° C.) for 30 minutes at 4° C., followed by 100% methanol (pre-cooled to −20° C.) for 10 minutes at ambient temperature. Wells were washed with PBS and blocked with 5% dried milk (Marvel) in Tris-buffered saline (TBS, pH 7.4) at 37° C. for 30 minutes. Each well was washed three times with water containing 0.1% Tween 20. […] Primary antibody was removed and wells were washed with water containing 0.1% Tween 20. […] Europium emissions were counted on a Wallac, Victor2 counter (Perkin-Elmer, Bucks UK).

[5] = in vivo; details: female Balb/c mice, 10 mg/kg iv and po
Protocol: Assay 5: Oral Bioavailability and Pharmacokinetics in Mice
All work was performed in accordance with the Home Office regulations under the Animals (Scientific Procedures) Act 1986 and according to UKCCCR guidelines for animal experimentation.
CHK1 inhibitor compounds were formulated in 10% DMSO, 1% Tween 20 and 89% sterile saline. Female Balb/c mice (Charles River UK Ltd, Margate, U.K.) were administered intravenously (iv) and orally (po) with 10 mg/kg of CHK1 inhibitor compound. Control animals received the vehicle alone. Groups of 3 mice were injected per timepoint. At 5, 15 and 30 minutes and 1, 2, 4, 6 and 24 hours after dosing, blood was collected by cardiac puncture with heparinised syringes from mice under anaesthesia (halothane/oxygen mix). Following centrifugation (9000×g, 2 minutes, 4° C.) plasma was frozen on dry ice and stored at −80° C. Tissues were excised, snap frozen in liquid nitrogen and stored at −80° C. Thawed plasma samples were extracted by protein precipitation using 3 volumes of methanol containing internal standard. […]. After centrifugation, supernatant was transferred for analysis. Extracted plasma samples were analysed by LC-MS-MS on an Agilent 1200 or 1290 LC coupled to an Agilent 6410 triple quadrupole mass spectrometer for the quantitation of the CHK1 inhibitor compound and internal standard. […]

Compound	Cell Efficacy + SN38 in HT29 cells (Potentiation Index) [1] [fold]	IC50 [2] [nM]	Cellular Selectivity (Activity Index) [3] [fold]	more potent than the next most potent compound (Y-154), MIA cellular potency [4]	Oral Bioavailability in Mouse [5] [%]	bioavailability ([5]; female, Balb/c, mouse, in vivo, 10 mg/kg) [%]
COCCOc1ccc(-c2cnc(Nc3cnc(C#N)cn3)cc2NC[C@H]2CNCCO2)cc1 [Compound Y-157]	2	15	6.3			
COCCCc1cnc(Nc2cnc(C#N)cn2)cc1NC[C@H]1CNCCO1 [Compound Y-159]		23				
COC(C)(C)C#Cc1cnc(Nc2cnc(C#N)cn2)cc1NC[C@@H]1CNCCO1 [Compound Y-155]	0.9	5				
COCC#Cc1cnc(Nc2cnc(C#N)cn2)cc1NC[C@@H]1CNCCO1 [Compound Y-154]	0.8	1	9.0			
N#Cc1cnc(Nc2cc(NC[C@H]3CNCCO3)c(C(F)(F)F)cn2)cn1 [Compound 1, 5-[[4-[[(2R)-Morpholin-2-yl]methylamino]-5-(trifluoromethyl)-2-pyridyl]amino]pyrazine-2-carbonitrile]				approximately 3 fold	105	100
N#Cc1cnc(Nc2cc(NCC3CNCCO3)c(C(=O)Nc3ccccc3)cn2)cn1 (stereo not shown) [Compound Y-102]		20	4.6			
N#Cc1cnc(Nc2cc(NC[C@@H]3CNCCO3)c(C(F)(F)F)cn2)cn1 [Compound 2, 5-[[4-[[(2S)-Morpholin-2-yl]methylamino]-5-(trifluoromethyl)-2-pyridyl]amino]pyrazine-2-carbonitrile]				~5 fold		
COCc1ccc(-c2cnc(Nc3cnc(C#N)cn3)cc2NC[C@H]2CNCCO2)cc1 [Compound Y-156]	1.6	10	5.4			
COCCOc1ccc(-c2cnc(Nc3cnc(C#N)cn3)cc2NC[C@@H]2CNCCO2)cc1 [Compound Y-149]		10	3.5			
COCc1ccc(-c2cnc(Nc3cnc(C#N)cn3)cc2NC[C@@H]2CNCCO2)cc1 [Compound Y-148]		13	4.4			
